Experimental findings from PMC8546421, “Molecular modelling of the FOXO4-TP53 interaction to design senolytic peptides for the elimination of senescent cancer cells” (EBioMedicine, 2021) are described below.

The test system of test [1] is senescent A375 cells. Kind of test: Peptide efficacy in culture (MTS), senescent cells. Format: cell-based, human. On the procedure:
Cell lines were treated with chemotherapy, doxorubicin (Sigma, Cat. No. 2252) to induce senescence (200 nM for HCT116, 100 nM for B16-F10 and MCF7, 50 nM for SW480 and DLD-1, 40 nM for A375-Luc/iRFP and MCF10a). MCF7 cells were treated with CDK4/6 inhibitor, palbociclib (Selleck Chemicals: S1116) to induce senescence (5 µM). A375 cells were treated with Braf inhibitor, Dabrafenib (Selleck Chemicals: S2807), to induce senescence (10 µM). Peptide efficacy experiments were performed by seeding 10,000 – 20,000 cells in a 96-well plate. The cells were given doxorubicin twice to make the cells senescent. After removal of doxorubicin, the plate was treated with varying concentrations of peptide. The peptide was replenished daily for two days. Cellular proliferation was quantified using the Promega CellTiter 96™ AQueous One Solution Cell Proliferation Assay (MTS) after 2 hours according to the manufacturer's protocol (Promega, G3581). To control for the charge of ES2, ProteoJuice (Millipore Sigma, 71281) was used to deliver ES2 using the manufacturers protocol, except 50 µL of 2 mM ES2 was mixed with 25 µL of ProteoJuice. Varying concentrations of the mixture were administered to A375 cells along with a control of only ProteoJuice.

For test [2], the target named is GFP (Aequorea victoria, UniProt P42212). Kind of test: Bio-layer Interferometry, GFP. In kind it is binding. Conditions: BLI. On the procedure:
Bio-layer Interferometry (BLI) measurements were performed on a ForteBio Octet RED384 instrument (Molecular Devices) using ForteBio Data Acquisition software 9.0 and ForteBio biosensors (Molecular Devices) according to the manufacturer's instructions. Kinetic assays were carried out at 30°C using settings of Standard Kinetics Acquisition rate (5.0 Hz, averaging by 20) at a sample plate shake speed of 1,000 rpm. Streptavidin sensors (SA) (ForteBio) equilibrated in PBS were mock loaded (no ligand reference sensor) or loaded with 50 nM of N- terminal biotinylated ES2 peptide (New England Peptide, Inc.) with an approximate response of 1 nm. Ligand loaded SA sensors equilibrated in Kinetics buffer (ForteBio) to establish a baseline, were dipped into wells containing 2-fold dilutions of TP53 (Millipore Sigma Aldrich; Cat# 23-034), FOXO4 (OriGene Technologies; Cat# TP760655) or GFP analytes in kinetics buffer, or buffer alone (reference sample). […] Binding curves were analysed using ForteBio Data Analysis HT 10.0 evaluation software. […] Equilibrium dissociation constants KD which defines the strength of the interaction or affinity was calculated as the kinetic dissociation rate constant divided by the kinetic association rate constant.

Test [3] deals with senescent A375 human melanoma cells. Kind of test: Orthotopic xenograft of senescent luciferase A375 cells in mouse ears. As to conditions: NSG mouse ears, local injection 50 µL of 5 mg/mL once daily for two days, imaged 24 hours after second treatment; ANOVA p<0.01. Format: in vivo. The source says: Mice were aged between 3-8 months and 20-30 g in weight and were housed in specific pathogen free cages. Animals were randomly distributed among treatment groups by assigning mice within the same cage to different treatment regimens. To minimise confounders, mouse treatment order was randomised within each cage. Male and female mice were distributed between all treatment groups since the chemicals used were directly injected and are not metabolized. Researchers were not blinded to the group allocation, but all attempts were made to analyse the data without knowing treatment conditions. NOD.Cg-Prkdcscid Il2rgtm1Wjl/SzJ (NSG) were purchased from The Jackson Laboratory (IMSR Cat# JAX:005557, RRID:IMSR_JAX:005557). NOD.Cg-KitW-41J Tyr + Prkdcscid Il2rgtm1Wjl/ThomJ (NBSGW) were purchased from The Jackson Laboratory (IMSR Cat# JAX:026622, RRID:IMSR_JAX:026622). Immunocompromised mice used for these experiments were all in the NSG background; however, some mice were F1 generation of NSG x NBSGW, thus the brown coat colour as NBSGW mice have tyrosinase. Xenografts containing senescent cells were established by injecting A375-Luc/iRFP human melanoma cells which contained a luciferase expressing gene into immunocompromised NSG ears. Senescence was induced in the cells via doxorubicin treatment (40 nM) then resuspended in DMEM prior to injection. Each ear was then injected with 50 µL containing approximately 1,000,000 cells. The ears were treated once daily for two days with 50 µL of either 5 mg/mL peptide, or saline. To control for confounders, each mouse contained one ear treated with saline (control). For imaging, mice were injected with 3 mg luciferin intravenously and imaged before and after treatment. Transgenic mice (BrafCA, PtenloxP, Tyr::CreERT2) were purchased from The Jackson Laboratory (IMSR Cat# JAX:013590, RRID:IMSR_JAX:013590). These mice were maintained on a C57Bl6 background and all experimental mice contained Tyr::CreER with either Braf^CA/+, Pten^fx/+; Braf^CA/CA, Pten^fx/+, or Braf^CA/+, Pten^fx/fx. […] Hypopigmented melanomas sporadically formed over the next 3-5 months, typically on the back of the mouse. These melanomas were then directly injected with 100 µL of either 20 mg/mL ES2+10%DMSO, saline+10%DMSO, saline+10%Dabrafenib, or 20 mg/mL ES2+10%Dabrafenib. The researchers were not blinded to the experiment, but each mouse contained an internal control and all imaging was done with the same exposure times based upon control tissue. For survival analyses, either 750,000 or 25,000 A375-Luc/iRFP cells were injected intradermally into NSG mice. Different combinations of drugs were locally injected to the region once daily for two days with 50 µL of either 5 mg/mL ES2, 10%Dabrafenib, or 5mg/mL ES2+10%Dabrafenib. Dabrafenib was made at 100 mg/mL in DMSO. Mice were then monitored daily and allowed to age until a humane endpoint was reached according to our IACUC protocol, which in this case was tumours of 2 cm in size. Aged C57Bl6 male mice were purchased from the Jackson Laboratory (IMSR Car# JAX:000664, RRID:IMSR_JAX:000664) at 72 weeks of age and were started on the experiment at 82 weeks. Mice were treated with 3 mg of ES2 via tail vein injection weekly for three weeks and weighed weekly. Blood was drawn prior to beginning experiments and at the endpoint. To generate plasma, blood was centrifuged at 1,500g for 10 minutes, then 2,500g for 10 minutes, then frozen for later analyses. […]

“Also recorded” adds a separate entry of the source. Where no end group is shown, it is not given here.

Broadly, the Kd is the concentration at which binding is half-saturated. The low end stands for higher affinity, the high end for lower affinity. “PRKGGRRRRAWGRRRRRRRRRRRRRRAPRKRLTLA [ES2]” came in with a cell death in test [1] (A375 cells, ProteoJuice control experiment, highest concentration) of 80%. For the same sequence, the “effect of delivery with ProteoJuice on senolytic activity” value in test [1] (ES2 delivered with ProteoJuice vs ES2 alone, senescent A375 cells, n=5) was “had no effect on viability in senescent cells compared to ES2 alone; also recorded: no difference in senolytic activity”. The IC50 in test [1] (doxorubicin (40 nM)-induced senescent A375 cells, peptide replenished daily for two days, MTS, best fit polynomial, read-out: IC50^sen, concentration to kill 50% of senescent cells) is about 7 µM. The “senolytic activity (in words)” value in test [1] (senescent vs dividing A375 cells) is “highest senolytic activity”. Further, the Kd in test [2] (biotinylated ES2 on streptavidin sensors, 30°C, NB – no binding) was over 0.2 µM. Besides, the “binding of GFP (in words)” value in test [2] (six 2-fold dilutions of GFP starting at 200nM) is recorded as “minimal binding of GFP; also recorded: no binding was detected”. Further, the “luciferase signal compared to E1 and saline” value in test [3] was “statistically significantly reduced luciferase signal”.
